Like-named read-outs stand apart in the source and are kept apart here.
How the values were obtained:
[1] = system: diet induced obesity (DIO) mouse model; assay: Diet induced obesity (DIO) mouse model, study B; format: in vivo; details: for FGF 21 / HOMA / Hepatic TG / Plasma Cholesterol / Plasma NEFA / Plasma TG: day 14; for Glucose / Insulin: day 14, 4-hour fasting
Description: The body weight of the animals was monitored daily throughout the dosing period. At day 14, blood samples for the measurement of plasma glucose and insulin from conscious mice were obtained after a 4-hour fasting period. Mice were then anaesthetized using isoflourane and terminal blood was collected from the capillary bed behind the eye. The following parameters were measured: blood chemistry measurements of triglycerides, total cholesterol, non-esterified fatty acids (NEFA), beta-hydroxybutyrate and fibroblast growth factor 21 (FGF21) (Table 16 and Table 17 below).

[2] = Stability testing of peptides in plasma; format: in vitro ADME, mouse; details: mouse, 24 h, 2 μmol/L
Description: (§1) Stability testing of peptides in plasma.
(§2) Stock solutions of the peptides of about 200 μmol/L was prepared by weighing solid peptide into a Eppendorf Low Bind Tube and dissolved in DMSO. 10 μL of stock solutions were added to 990 μL of plasma in an Eppendorf Low Bind Tube, resulting in initial concentrations of the peptides in plasma of about 2 μmol/L. The frozen blank plasma from human, rat and mouse had been thawed and heated to a temperature of 37° C. before addition of the stock solution. The spiked plasma samples were gently mixed and allowed to equilibrate for about 5 minutes before start of experiment. The plasma samples were incubated for 48 hours in a GalaxyR CO2 incubator at 37° C. Sampling (30 μL) was performed at 0, 1, 2, 6.5, 17, 24 and 48 hours. The samples were stored at −70° C. until analysis.
(§3) Plasma samples were assayed as follows. The 30 μL plasma samples were protein precipitated with […] of cold ethanol in a 96-well low bind plate (Eppendorf Protein LoBind). After mixing and centrifugation, 100 μl the supernatant was transferred to a new plate and 1 μl was injected onto an analytical column.
(§4) The analysis was performed using a μLC-system (LC Exigent μLC) coupled to a medium high resolution mass spectrometer (Perkin Elmer PenTOF) with positive electrospray ionisation. The analytical column was a 5 cm, 1 mm Agilent Poroshell (custom made) C18-column with a particle size of 2.7 μm. Flow: 0.1 ml/min using a slow reversed phase gradient. Mobile phases used were acetonitrile and water containing 0.1% formic acid.
The resulting data were manually evaluated for the following degradation products: +1 product (acid) and the DPP IV-cleavage product. Products with +1 mass may arise from deamidation at amide groups of glutamine or at the C-terminus. Cleavage products arise from the action of the protease DPP IV in plasma. Both the degradation of the peptides and formation of peptide products were reported in percentage of the initial peptide concentration. Peaks were integrated and % remaining peptide was calculated: (peak area/peak area 0H)*100. […]

[3] = system: overweight or obese subjects with type 2 diabetes mellitus (T2DM); assay: Phase 1/2 multiple-ascending dose study Part I (Cohorts 1-4)
Description: (§5) A Phase 1/2, randomized, double-blind, multiple-ascending dose study is performed in two parts (A and B).
Part A consists of 3 cohorts.
Part B consists of 1 cohort.
(§6) The initial dose is 100 μg. […] The study duration for each subject varies by cohort and consists of an inpatient multiple-ascending dose (MAD) or up-titration evaluation period (beginning on Day −2 and ending after Day 8 for Cohort 1, Day 12 for Cohort 2, Day 16 for Cohort 3, and Day 13 for Cohort 4) and an outpatient follow-up period.
(§7) The subject remains in the facility for observation and safety tests including ECGs, telemetry, monitoring of vital signs, and assessments of the injection site for potential reactions throughout the day and during the treatment period.
(§8) Mixed-meal test (MMT) procedures are performed on Day −1 and on the last day of the highest dose level achieved for all cohorts. […] For the MMT, the subject consumes a standardized meal (Ensure Plus %) within 5 minutes, and timed serial blood samples are obtained for measurement of glucose and parameters related to glucose metabolism just before and through 240 minutes after consumption of the standandized meal. During the inpatient period, finger prick glucose samples are collected 15 minutes prior to and 2 hours after breakfast, mid-day, and evening meals, and prior to going to bed.
(§9) Cohort 4 subjects are re-admitted for an overnight inpatient stay at the end of the at-home self-administration period to collect the final endpoints.
(§10) Subjects are discharged from the unit the day after the final dose is administered in the study.
(§11) Missing measurements at the end of treatment are replaced with the last available measurement. The comparison is conducted at a two-sided significance level of 0.1.

human serum albumin = human serum albumin (Homo sapiens, UniProt P02768); assay: Fraction of free peptide calculated from variation in cAMP generation with HSA concentration; details: human
Text: Data was transformed to % Delta F as described in manufacturer's guidelines and analysed by 4-parameter logistic fit to determine EC50 values. […] To compare the balance of activities at the GLP1R and GlucR between different peptides and across different conditions, these can be correlated using the calculation below, where the EC50's are related to those of the natural ligands.

[4] = system: overweight or obese subjects with type 2 diabetes mellitus (T2DM); details: human, in vivo
Description: as §5
Part A consists of 3 cohorts.
Part B consists of 1 cohort.
as §6, §7, §8, §9, §10, §11

[5] = format: in vitro ADME, human; details: human, 24 h, 2 μmol/L
Description: as §1, §2, §3, §4
The resulting data were manually evaluated for the following degradation products: +1 product (acid) and the DPP IV-cleavage product. Products with +1 mass may arise from deamidation at amide groups of glutamine or at the C-terminus. Cleavage products arise from the action of the protease DPP IV in plasma. Both the degradation of the peptides and formation of peptide products were reported in percentage of the initial peptide concentration. Peaks were integrated and % remaining peptide was calculated: (peak area/peak area 0H)*100. Levels of deamidation and DPP IV cleavage were low for G797 and G933.

[6] = Cohort 4, 200 ug, n = 25 active

Chain of human serum albumin (P02768 25-609): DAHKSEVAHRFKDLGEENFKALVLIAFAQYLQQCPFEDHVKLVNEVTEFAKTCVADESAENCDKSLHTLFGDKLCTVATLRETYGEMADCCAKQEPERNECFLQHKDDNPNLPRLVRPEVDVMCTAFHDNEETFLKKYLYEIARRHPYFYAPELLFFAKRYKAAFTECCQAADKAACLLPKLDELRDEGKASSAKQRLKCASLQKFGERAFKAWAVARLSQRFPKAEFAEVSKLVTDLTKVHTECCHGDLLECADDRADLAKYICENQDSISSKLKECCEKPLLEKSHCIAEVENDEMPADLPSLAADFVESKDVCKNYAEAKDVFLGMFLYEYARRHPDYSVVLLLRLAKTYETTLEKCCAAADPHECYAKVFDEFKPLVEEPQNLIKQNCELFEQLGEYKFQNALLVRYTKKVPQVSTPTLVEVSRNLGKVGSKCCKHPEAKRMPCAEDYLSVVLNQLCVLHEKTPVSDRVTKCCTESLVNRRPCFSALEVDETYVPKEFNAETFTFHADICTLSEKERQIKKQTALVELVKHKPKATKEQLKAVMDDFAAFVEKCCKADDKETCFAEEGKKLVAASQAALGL

## CCCCCCCCCCCCCCCC(=O)N[C@@H](CCC(=O)NCCCC[C@H](NC(=O)[C@H](CC(=O)O)NC(=O)[C@H](CO)NC(=O)C(NC(=O)[C@H](Cc1ccccc1)NC(=O)C(NC(=O)CNC(=O)[C@H](CCC(N)=O)NC(=O)[C@H](CO)NC(=O)[C@@H](N)Cc1cnc[nH]1)[C@@H](C)O)[C@@H](C)O)C(=O)N[C@@H](CO)C(=O)N[C@@H](CCC(=O)O)C(=O)N[C@@H](Cc1ccc(O)cc1)C(=O)N[C@@H](CC(C)C)C(=O)N[C@@H](CC(=O)O)C(=O)N[C@@H](CO)C(=O)N[C@@H](CCC(=O)O)C(=O)N[C@@H](CCCNC(=N)N)C(=O)N[C@@H](C)C(=O)N[C@@H](CCCNC(=N)N)C(=O)N[C@@H](CC(=O)O)C(=O)N[C@@H](Cc1ccccc1)C(=O)N[C@H](C(=O)N[C@@H](C)C(=O)N[C@@H](Cc1c[nH]c2ccccc12)C(=O)N[C@@H](CC(C)C)C(=O)N[C@@H](CCC(=O)O)C(=O)N[C@@H](C)C(=O)NCC(=O)NCC(=O)O)C(C)C)C(=O)O (stereo partly drawn) [Peptide G933]
[1]; 5 nmol/kg sc twice daily for 14 days
  BW day 14 (% change of vehicle mean): −11%
[1]; 5 nmol/kg sc twice daily
  FGF 21: 2682 pg/mL
  HOMA: 3.31
  Hepatic TG: 19.3 g TG/100 g tissue
  Plasma Cholesterol: 2.88 mM
  Plasma NEFA: 0.28 mM
  Plasma TG: 0.89 mM
  Glucose: 6.2 mM
  Insulin: 0.53 nM
[1]; 10 nmol/kg sc twice daily for 14 days
  BW day 14 (% change of vehicle mean): −19%
[1]; 10 nmol/kg sc twice daily
  FGF 21: 4459 pg/mL
  HOMA: 1.98
  Hepatic TG: 14.7 g TG/100 g tissue
  Plasma Cholesterol: 2.32 mM
  Plasma NEFA: 0.27 mM
  Plasma TG: 0.16 mM
  Glucose: 7.2 mM
  Insulin: 0.27 nM
[1]; study B, in words
  body weight over the 14 day dosing period: dose dependent and continuous weight loss
[2]
  % stable peptide: 83%
[3]; Cohort 1, 100 ug, n = 6 active
  Fasting Glucose (change): -28.00 mg/dL
  Glucose AUG (change): −27.3
  Weight (change): -1.1 kg
[3]; Cohort 2, 150 ug, n = 6 active
  Fasting Glucose (change): -17.90 mg/dL
  Glucose AUG (change): −8.9
  Weight (change): -0.5 kg
[3]; Cohort 3
  weight differential: more than 2 kg
[3]; Cohort 3, 200 ug, n = 6 active
  Fasting Glucose (change): -43.20 mg/dL
  Glucose AUG (change): −31.6
  Weight (change): -2.4 kg
[3]; Cohort 4
  reduction in liver volume compared to placebo: 0.14 L
[3]; Cohort 4, 200 μg, N = 25
  Death (grade 5 severity): 0
  Subject with at least one G933-related serious event: 0
  Subject with at least one event: 22 (88.8%)
  Subject with at least one event leading to discontinuation of G933: 3 (12.0%)
  Subject with at least one event of ≥ grade 3 severity: 0
  Subject with at least one serious event: 0
[3]; [6]
  Fasting Glucose (change): -31.62 mg/dL
  Glucose AUG (change): −22.5
[3]; Cohort 4, 8 patients
  patients who vomited: 32.0%
[3]; Cohort 4, 13 patients
  patients reporting nausea: 52.0%
[3]; Cohort 4, 41 days
  patients who lost at least 2% of their weight: 84%
  patients who lost at least 5 kg: 44%
  percent weight loss difference between G933 and placebo: 2.47%
  weight loss difference between G933 and placebo: 2.12 kg
[3]; Cohort 4, Day 41
  increase in heart rate: 6.9 bpm
[3]; Cohort 4, after 41 days
  percent of weight lost: about 4.18%
  weight lost: about 3.83 kg
[3]; Cohort 4, after 41 days of treatment
  HbA1c reduction: 0.92%
[3]; Cohort 4, baseline mean […]
  mean HbA1c on day 42: 6.3%
[3]; Cohort 4, up to 200 μg
  mean reduction in glucose AUC from baseline (day 1) to day 41: 38.5%
[3]; Cohorts 1-3 (n=5)
  patients with vomiting: 26%
[3]; Cohorts 1-3, dose dependent trend
  weight loss: up to 2 kg
[3]; across Cohorts 1-3 (100-200 μg QD)
  mixed-meal test glucose AUC reduction: > 40%
[3]; each of Cohorts 1-3
  increase in pulse rate: about 10 bpm
[3]; larger Cohort 4
  Between-subject variability in Cmax: 40-50%
[3]; post baseline, Cohorts 1-3
  anti-G933 antibody: Only one sample was confirmed positive
[3]; smaller cohorts, Parts I and II
  Between-subject variability in Cmax: 20-30%
Human serum albumin
  free peptide at 4.4% HSA: 0.29%
[4]
  half-life: 8 to 11 h
[5]
  % DPP cleaved product/+1 DPP cleaved product: <1%
  % stable peptide: 86%
[5]; rat, mouse
  Levels of deamidation and DPP IV cleavage: low

From patent US20220041681A1 (MEDIMMUNE LIMITED, priority 2016, published 2022)
